biological target: T1, porcine pancreatic α-amylase (PPA) (Sus scrofa, UniProt P00690); test: Porcine pancreatic α-amylase (PPA) inhibitory activity assay (starch-iodine); type: biochemical; conditions: PPA 50 U/mL, 0.2% soluble starch, phosphate buffer pH 6.9, 20 °C, 30 min; averages of three replicates
T1 sequence (P00690 16-511): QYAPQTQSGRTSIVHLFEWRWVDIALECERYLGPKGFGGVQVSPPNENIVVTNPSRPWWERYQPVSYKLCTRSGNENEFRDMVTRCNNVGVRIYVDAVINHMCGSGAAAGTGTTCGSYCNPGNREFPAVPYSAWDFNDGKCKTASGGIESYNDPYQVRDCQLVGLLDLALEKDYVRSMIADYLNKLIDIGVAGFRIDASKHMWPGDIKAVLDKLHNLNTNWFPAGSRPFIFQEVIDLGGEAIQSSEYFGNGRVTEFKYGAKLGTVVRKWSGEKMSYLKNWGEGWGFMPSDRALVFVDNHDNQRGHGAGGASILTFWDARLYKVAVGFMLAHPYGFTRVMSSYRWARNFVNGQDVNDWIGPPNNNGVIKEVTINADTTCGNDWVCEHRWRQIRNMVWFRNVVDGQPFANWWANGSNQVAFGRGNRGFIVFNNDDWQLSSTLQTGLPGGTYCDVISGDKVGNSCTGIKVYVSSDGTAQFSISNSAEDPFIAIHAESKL
Procedure: Porcine pancreatic α-amylase inhibitory (PPA) inhibitory activity assay was carried out reference to the procedure previously described. In brief, 5 μL of enzyme solution (PPA, 50 U/mL) and 10-fold series diluted test sample solution (inhibitors, dissolved in distilled water) were mixed and pre-incubated. 100 μL of 0.2% soluble starch (substrate, dissolved in 100 mM phosphate buffer, pH 6.9) was added and incubated at 20 °C for 30 min. The reaction was terminated by the addition of 20 μL 1 M HCl. The remaining starch was quantified by using the following method: 100 μL of the reaction solution was mixed with 25 μL of Lugol’s iodine solution. The absorption was measured at 630 nm in the 96-well plates. […] The data were imported into GraphPad Prism version 5.0 (GraphPad Software, San Diego, CA, USA, www.graphpad.com) and the IC50 values were calculated by using a standard dose response curve fitting.

Row | Structure (SMILES) | IC50
1 | CC(=O)OC[C@H]1O[C@H](O[C@H]2[C@H](O)[C@@H](O)[C@@H](O[C@H]3[C@H](O)[C@@H](O)[C@@H](O[C@H]4[C@H](O)[C@@H](O)C(O)O[C@@H]4CO)O[C@@H]3CO)O[C@@H]2CO)[C@H](O)[C@@H](O)[C@@H]1O[C@H]1O[C@H](C)[C@@H](N[C@H]2C=C(CO)[C@@H](O[C@H]3O[C@H](CO)[C@@H](O[C@H]4O[C@H](C)[C@@H](N[C@H]5C=C(CO)[C@@H](O)[C@H](O)[C@H]5O)[C@H](O)[C@H]4O)[C@H](O)[C@H]3O)[C@H](O)[C@H]2O)[C@H](O)[C@H]1O (stereo partly drawn) [compound 1, D6-O-acetyl-acarviostatin II03] | 29 ± 1 nM
2 | CC(O)CC(=O)OC[C@H]1O[C@H](O[C@H]2[C@H](O)[C@@H](O)[C@@H](O[C@H]3[C@H](O)[C@@H](O)[C@@H](O[C@H]4[C@H](O)[C@@H](O)C(O)O[C@@H]4CO)O[C@@H]3CO)O[C@@H]2CO)[C@H](O)[C@@H](O)[C@@H]1O[C@H]1O[C@H](C)[C@@H](N[C@H]2C=C(CO)[C@@H](O[C@H]3O[C@H](CO)[C@@H](O[C@H]4O[C@H](C)[C@@H](N[C@H]5C=C(CO)[C@@H](O)[C@H](O)[C@H]5O)[C@H](O)[C@H]4O)[C@H](O)[C@H]3O)[C@H](O)[C@H]2O)[C@H](O)[C@H]1O (stereo partly drawn) [compound 2, D6-O-β-hydroxybutyryl-acarviostatin II03] | 49 ± 16 nM
3 | CC(=O)OC[C@H]1O[C@H](O[C@H]2[C@H](O)[C@@H](O)[C@@H](O[C@H]3[C@H](O)[C@@H](O)[C@@H](O[C@H]4[C@H](O)[C@@H](O)C(O)O[C@@H]4CO)O[C@@H]3CO)O[C@@H]2CO)[C@H](O)[C@@H](O)[C@@H]1O[C@H]1O[C@H](C)[C@@H](N[C@H]2C=C(CO)[C@@H](O)[C@H](O)[C@H]2O)[C@H](O)[C@H]1O (stereo partly drawn) [compound 3, D6-O-acetyl-acarviostatin I03] | 693 ± 97 nM
4 | CCC(=O)OC[C@H]1O[C@H](O[C@H]2[C@H](O)[C@@H](O)[C@@H](O[C@H]3[C@H](O)[C@@H](O)[C@@H](O[C@H]4[C@H](O)[C@@H](O)C(O)O[C@@H]4CO)O[C@@H]3CO)O[C@@H]2CO)[C@H](O)[C@@H](O)[C@@H]1O[C@H]1O[C@H](C)[C@@H](N[C@H]2C=C(CO)[C@@H](O)[C@H](O)[C@H]2O)[C@H](O)[C@H]1O (stereo partly drawn) [compound 4, D6-O-propionyl-acarviostatin I03] | 625 ± 24 nM

The next lines start with the values.

Row | IC50 | Structure (SMILES)
5 | 495 ± 63 nM | CC(O)CC(=O)OC[C@H]1O[C@H](O[C@H]2[C@H](O)[C@@H](O)[C@@H](O[C@H]3[C@H](O)[C@@H](O)[C@@H](O[C@H]4[C@H](O)[C@@H](O)C(O)O[C@@H]4CO)O[C@@H]3CO)O[C@@H]2CO)[C@H](O)[C@@H](O)[C@@H]1O[C@H]1O[C@H](C)[C@@H](N[C@H]2C=C(CO)[C@@H](O)[C@H](O)[C@H]2O)[C@H](O)[C@H]1O (stereo partly drawn) [compound 5, D6-O-β-hydroxybutyryl-acarviostatin I03]
6 | 29 ± 4 nM | C[C@H]1O[C@H](O[C@H]2[C@H](O)[C@@H](O)[C@@H](O[C@H]3[C@H](O)[C@@H](O)[C@@H](O[C@H]4[C@H](O)[C@@H](O)[C@@H](O[C@H]5[C@H](O)[C@@H](O)C(O)O[C@@H]5CO)O[C@@H]4CO)O[C@@H]3CO)O[C@@H]2CO)[C@H](O)[C@@H](O)[C@@H]1N[C@H]1C=C(CO)[C@@H](O[C@H]2O[C@H](CO)[C@@H](O[C@H]3O[C@H](C)[C@@H](N[C@H]4C=C(CO)[C@@H](O)[C@H](O)[C@H]4O)[C@H](O)[C@H]3O)[C@H](O)[C@H]2O)[C@H](O)[C@H]1O (stereo partly drawn) [compound 6, acarviostatin II03]

— paper PMC6265919, “Acylated Aminooligosaccharides with Inhibitory Effects against α-Amylase from Streptomyces sp. HO1518” (Marine Drugs, 2018)
